From ChEMBL document CHEMBL1138111, “Reduction of CYP450 inhibition in the 4-[(1H-imidazol-4-yl)methyl]piperidine series of histamine H3 receptor antagonists” (Bioorg Med Chem Lett, 2006)
pIC50, pKi: −log10 of the molar value.

Legend:
[1] = molecular target: T1, Histamine H3 receptor (Cavia porcellus, UniProt Q9JI35); assay: Antagonistic activity against histamine H3 receptor in guinea pig ileum; assay type: functional, tissue-based; details: read-out: pA2 (converted)
[2] = molecular target: T2, Cytochrome P450 2D6 (Homo sapiens, UniProt P10635); assay: Inhibition of CYP2D6 by human liver microsome assay; assay type: ADME, microsomes
[3] = molecular target: T1, Histamine H3 receptor; assay: Displacement of [3H]N-alpha-methylhistamine from guinea pig histamine H3 receptor
[4] = Plasma AUC (0-6 h) in rat at 10 mg/kg, po; assay type: ADME, organism-based; design: time < 6 hr, dose 10 mg/kg, route oral
[5] = molecular target: T2, Cytochrome P450 2D6; assay: Inhibition of CYP2D6 by supersome assay; assay type: ADME
[6] = Plasma AUC (0-24 h) in monkey at 3 mg/kg, po; assay type: ADME, organism-based, Macaca mulatta; design: time < 24 hr, dose 3 mg/kg, route oral; details: rhesus monkey
[7] = molecular target: Cytochrome P450 3A4 (Homo sapiens, UniProt P08684); assay: Inhibitory activity against CYP3A4; assay type: ADME
Cytochrome P450 3A4, sequence (P08684 whole entry): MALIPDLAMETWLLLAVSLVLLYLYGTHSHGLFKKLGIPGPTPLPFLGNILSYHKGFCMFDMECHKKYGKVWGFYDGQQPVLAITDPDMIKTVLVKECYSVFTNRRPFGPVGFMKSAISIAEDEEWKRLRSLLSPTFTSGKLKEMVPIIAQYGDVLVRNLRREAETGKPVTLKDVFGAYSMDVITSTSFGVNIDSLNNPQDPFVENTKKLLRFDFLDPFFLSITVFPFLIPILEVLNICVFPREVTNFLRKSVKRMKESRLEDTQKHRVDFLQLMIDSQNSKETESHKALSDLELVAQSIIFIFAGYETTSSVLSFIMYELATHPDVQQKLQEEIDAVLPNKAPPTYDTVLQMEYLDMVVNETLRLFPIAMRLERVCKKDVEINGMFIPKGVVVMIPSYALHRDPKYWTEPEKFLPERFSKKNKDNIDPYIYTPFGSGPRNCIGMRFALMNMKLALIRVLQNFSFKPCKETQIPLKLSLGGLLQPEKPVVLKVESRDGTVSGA

T2 sequence (P10635 whole entry): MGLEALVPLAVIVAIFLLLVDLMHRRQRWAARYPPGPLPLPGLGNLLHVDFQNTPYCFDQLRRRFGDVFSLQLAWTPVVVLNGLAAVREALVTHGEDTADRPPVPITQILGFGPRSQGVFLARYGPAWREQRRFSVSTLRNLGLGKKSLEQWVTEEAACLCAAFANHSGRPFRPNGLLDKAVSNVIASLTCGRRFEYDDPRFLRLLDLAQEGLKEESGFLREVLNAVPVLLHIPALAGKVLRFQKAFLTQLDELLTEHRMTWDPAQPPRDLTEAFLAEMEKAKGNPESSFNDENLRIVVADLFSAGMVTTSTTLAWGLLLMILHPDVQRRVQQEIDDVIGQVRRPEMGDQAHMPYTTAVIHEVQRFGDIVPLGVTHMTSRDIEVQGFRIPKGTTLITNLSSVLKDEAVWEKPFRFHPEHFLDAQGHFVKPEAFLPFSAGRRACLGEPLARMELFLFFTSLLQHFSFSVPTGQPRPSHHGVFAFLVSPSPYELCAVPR
T1 sequence (Q9JI35 whole entry): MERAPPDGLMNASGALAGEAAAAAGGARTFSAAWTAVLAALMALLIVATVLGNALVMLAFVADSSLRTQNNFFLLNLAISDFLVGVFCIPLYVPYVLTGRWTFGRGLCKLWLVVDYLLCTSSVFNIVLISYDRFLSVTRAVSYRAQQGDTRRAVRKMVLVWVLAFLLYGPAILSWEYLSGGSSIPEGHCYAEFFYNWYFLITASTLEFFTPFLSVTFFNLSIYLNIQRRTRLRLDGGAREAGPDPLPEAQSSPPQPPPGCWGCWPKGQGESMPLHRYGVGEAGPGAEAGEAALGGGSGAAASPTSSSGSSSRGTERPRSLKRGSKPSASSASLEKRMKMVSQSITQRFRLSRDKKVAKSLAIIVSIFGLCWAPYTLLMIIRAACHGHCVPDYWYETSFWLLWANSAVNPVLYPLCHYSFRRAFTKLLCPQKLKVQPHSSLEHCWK

Compound | Kb [1] | pIC50 [2] | pKi [3] | pIC50 [5] | AUC(0-t) at 24 h [6] | pIC50 [7] | AUC(0-t) at 6 h [4]
c1cnc(-c2ccc(OCCCN3CCC(Cc4cnc[nH]4)CC3)cc2)nc1 |  | 5.22 | 7.35 |  |  |  | 
O=C(CCOc1ccc(CN2CCCCC2)cc1)N1CCC(Cc2cnc[nH]2)CC1 |  | 6.00 | 6.50 |  |  |  | 1.83 µM·h
O=C(CCN1CCC(Cc2c[nH]cn2)CC1)Nc1ccc(CN2CCCCC2)cc1 |  | 5.05 | 7.40 |  |  |  | 
O=C(c1ccc(OCCCN2CCC(Cc3cnc[nH]3)CC2)cc1)N1CCNCC1 | 15.8 nM | < 4.70 | 7.64 |  |  |  | 
c1nc(CC2CCN(CCCCOc3ccc(CN4CCCCC4)cc3)CC2)c[nH]1 | 15.8 nM | < 4.70 | 7.80 |  |  |  | 
O=C(Nc1nccs1)N1CCC(Cc2cnc[nH]2)CC1 | 25.1 nM | 5.70 | 8.40 |  |  |  | 1.03 µM·h
CN(C)CCCOc1ccc(CN2CCC(Cc3cnc[nH]3)CC2)cc1 | 79.4 nM | < 4.52 | 7.77 |  |  |  | 
c1cnc2ccc(OCCCN3CCC(Cc4cnc[nH]4)CC3)cc2c1 |  | 5.70 | 7.28 |  |  |  | 
O=C1CCCCN1Cc1ccc(OCCCN2CCC(Cc3cnc[nH]3)CC2)cc1 |  |  | 7.47 | 5.30 |  |  | 
O=C(c1ccc(OCCCN2CCC(Cc3cnc[nH]3)CC2)nc1)N1CCCCC1 | 20 nM | 5.70 | 7.62 |  |  |  | 
O=C(CCc1ccc(CN2CCCCC2)cc1)N1CCC(Cc2c[nH]cn2)CC1 |  | 5.52 | 7.35 |  |  |  | 
NC(=O)C1CCN(Cc2ccc(OCCCN3CCC(Cc4c[nH]cn4)CC3)cc2)CC1 | 25.1 nM |  | 7.80 | < 4.52 |  |  | 
O=C(Nc1ncccn1)N1CCC(Cc2c[nH]cn2)CC1 | 25.1 nM | 5.22 | 8.10 |  |  |  | 
O=C(CCOc1ccc(C(=O)N2CCNCC2)cc1)N1CCC(Cc2c[nH]cn2)CC1 |  | 4.52 |  |  |  |  | 
c1ccc(OCCCN2CCC(Cc3c[nH]cn3)CC2)cc1 |  | 7.52 |  |  |  | < 4.70 | 
O=C(c1ccc(OCCCN2CCC(Cc3c[nH]cn3)CC2)cc1)N1CCCCC1 | 20 nM |  | 7.59 | 5.70 |  |  | 
CN(C)CCCOc1ccc(CN2CCCCC2)cc1 | 31.6 nM | < 4.52 | 7.48 |  |  | < 4.52 | 

The remaining compounds from weak to strong by pKi [3], led by results:

Kb [1] | pIC50 [2] | pKi [3] | pIC50 [5] | AUC(0-t) at 24 h [6] | pIC50 [7] | Compound | AUC(0-t) at 6 h [4]
 | 6.05 | 7.82 |  |  |  | c1ncc(CC2CCN(CCCOc3ccc(NC4CCCCC4)cc3)CC2)[nH]1 | 
 | 6.00 | 7.82 |  |  |  | c1nc(CC2CCN(CCCOc3ccc(N4CCCCC4)cc3)CC2)c[nH]1 | 
50.1 nM | < 4.52 | 7.89 |  |  |  | CN(C)CCCOc1ccc(CCCN2CCC(Cc3cnc[nH]3)CC2)cc1 | 
 | 6.52 | 7.92 |  |  |  | c1cncc(-c2ccc(OCCCN3CCC(Cc4cnc[nH]4)CC3)cc2)c1 | 
20 nM | 4.92 | 7.92 |  |  |  | Nc1ncc(-c2ccc(OCCCN3CCC(Cc4c[nH]cn4)CC3)cc2)cn1 | 
 | < 4.70 | 7.92 |  |  |  | c1ncc(CC2CCN(CCCOc3ccc(N4CCNCC4)cc3)CC2)[nH]1 | 
7.94 nM | 5.52 | 8.00 |  |  |  | c1nc(CC2CCN(CCCOc3ccc(CN4CCCCC4)nc3)CC2)c[nH]1 | 
 | 5.40 | 8.05 |  |  |  | c1ncc(-c2ccc(OCCCN3CCC(Cc4cnc[nH]4)CC3)cc2)cn1 | 
 | 6.52 | 8.22 |  |  |  | c1ncc(CC2CCN(CCCOc3ccc(OC4CCCCC4)cc3)CC2)[nH]1 | 
 | 5.52 | 8.30 |  |  |  | c1ncc(CC2CCN(CCOc3ccc(CN4CCCCC4)cc3)CC2)[nH]1 | 
 | 5.22 | 8.40 |  |  |  | FC1(F)CCN(Cc2ccc(OCCCN3CCC(Cc4cnc[nH]4)CC3)cc2)CC1 | 
1.58 nM | 5.22 | 8.40 |  |  |  | CCN(CC)Cc1ccc(OCCCN2CCC(Cc3c[nH]cn3)CC2)cc1 | 
 | 5.70 | 8.52 |  |  |  | c1cc(OCCCN2CCC(Cc3cnc[nH]3)CC2)cc(OC2CCCCC2)c1 | 
 | < 4.52 | 8.52 |  |  |  | c1ncc(CC2CCN(CCCOc3ccc(CN4CCC(N5CCCCC5)CC4)cc3)CC2)[nH]1 | 
3.16 nM |  | 8.52 | 6.00 |  |  | c1ncc(CC2CCN(CCCOc3ccc(CCN4CCCCC4)cc3)CC2)[nH]1 | 
2.51 nM | 4.85 | 8.52 |  | 3.2 µM·h |  | c1nc(CC2CCN(CCCOc3ccc(CN4CCCCC4)cc3)CC2)c[nH]1 | 
3.98 nM | 5.52 | 9.00 |  |  |  | c1cc(CN2CCCCC2)cc(OCCCN2CCC(Cc3cnc[nH]3)CC2)c1 | 
